Measurements reported in patent publication US20100120703A1, “COMPOSITIONS AND METHODS FOR TREATING CANCER” (priority 2007, published 2010).

Test system: HepG2 cells
Assay: Apoptosis determination by DNA fragmentation assay
Assay type: cell-based, human
Description: DNA fragmentation or DNA laddering is an indication of apoptosis. During the apoptosis process, the enzymes involved in DNA repair and cell replication are inactivated and nuclear proteins are degraded. After the nuclear structure is fragmented, DNA inside the nucleus is fragmented by the enzyme Caspase Activated DNase. This enzyme is only activated during apoptosis and causes the fragmentation of DNA into nucleosomal units (Hugh J M Brady, 2004). DNA fragmentation is used to identify the apoptosis event.
HepG2 cells were treated and harvested as described in the foregoing examples. The cell pellet was re-suspended in 400 μl of the lysis buffer by vortexing. Twenty microliters of 10 mg/ml protease K were added into the solution after a complete dissolution. The solution was incubated at 37° C. for 3 hours to completely lyse the cells. After incubation, the solution was allowed to cool to room temperature. One hundred and fifty microliters of a saturated NaCl solution were added into the cell lysate and vortexed. The lysate was centrifuged at 7,000 rpm for 15 minutes. The supernatant was collected in a new microcentrifuge tube. One milliliter of ice cold absolute ethanol was added to the solution to precipitate DNA. After precipitation, the microcentrifuge tube was centrifuged at 14,000 rpm for 20 minutes at 4° C. […]

C=CC/C(=N/OS(=O)(=O)[O-])S[C@@H]1OC(CO)[C@@H](O)C(O)C1O.[K+] (some centres unmarked) [SIN, sinigrin]
DNA ladder on agarose gel (0.25 mM SIN): A DNA ladder started to appear | DNA ladder on agarose gel (0.5 mM SIN, 96 hours): a DNA ladder was clearly visible
